Earlier results in PMC4686915, “An engineered scorpion toxin analogue with improved Kv1.3 selectivity displays reduced conformational flexibility” (Scientific Reports, 2015).
Read-outs that look alike come from different tables or passages of the source.

Experiments:
[1] = biological target: Kv1.2
Source text: (§1) Anuroctoxin (AnTx, αKTx 6.12) is a peptide toxin of 35 amino acids with a molecular weight of 4082.8, stabilized by four disulphide bridges, which was isolated by our workgroup from the venom of the scorpion Anuroctonus phaiodactylus. […] Our aim was to improve the selectivity of the wild-type toxin for Kv1.3 by site-directed changes in the primary sequence of the peptide. || Figure 1 Sequence comparison of Kv1.2- and Kv1.3-selective toxins. The aligned primary sequences are shown for toxins for which the affinities for both Kv1.2 and Kv1.3 channels were determined. Toxins were classified as Kv1.2-selective, non-selective or Kv1.3-selective based on the ratio of the determined Kd values for the two channels. TEXT PRINTED IN THE PICTURE: maurotoxin: KdKv1.2/KdKv1.3: 0.004; KdKv1.2 (nM): 0.8; KdKv1.3 (nM): 180; selectivity: Kv1.2 | CoTX1: KdKv1.2/KdKv1.3: 0.005; KdKv1.2 (nM): 27; K ... || First we aimed at reproducing the effects of natural anuroctoxin with the wild-type toxin produced by solid-state chemical synthesis, denoted as sAnTx. The blocking effect of sAnTx was first tested on Kv1.3 channels expressed by activated human lymphocytes. Channels were activated by depolarizing pulses to +50 mV to maximize the open probability and pulse duration was limited to 15 ms to minimize inactivation. The use of such short pulses prevented cumulative inactivation and allowed us to record the current amplitude every 15 s giving better temporal resolution of the kinetics of block develo ... || (+ 1 further places)

[2] = biological target: T1, Kv1.3 (Homo sapiens, UniProt P22001); set-up: endogenous in cells; conditions: for selectivity class: Figure 1, based on ratio of Kd values for Kv1.2 and Kv1.3, ref not given; for block of Kv1.3, in words: toxins with tyrosine at the aromatic dyad position, ref 10 (ChTx), 13 (Css20), 32 (Tst26), 33 (noxiustoxin), 34 (hongotoxin-1), 30 (Pi1)
Source text: as §1, with “(+ 3” for “(+ 1”

[3] = biological target: Kv1.2 (Homo sapiens) (UniProt P16389)
[4] = biological target: T1, Kv1.3
[5] = system: hKv1.2 V381H
Source text: (§2) We first targeted the essential dyad to improve selectivity. […] While the necessity of the dyad lysine was shown for other Kv channels as well[10], the requirement for the aromatic half of the dyad, especially the tyrosine, is not as straightforward for blocking Kv1.3.

[6] = system: hKv1.3 H399T
Source text: as §2

[7] = Figure 1 sequence comparison, literature toxins, ref not given, read-out: KdKv1.2
[8] = Figure 1 sequence comparison, literature toxins, ref not given
[9] = Figure 1 sequence comparison, literature toxins, ref not given, read-out: KdKv1.3

T1 sequence (P22001 whole entry): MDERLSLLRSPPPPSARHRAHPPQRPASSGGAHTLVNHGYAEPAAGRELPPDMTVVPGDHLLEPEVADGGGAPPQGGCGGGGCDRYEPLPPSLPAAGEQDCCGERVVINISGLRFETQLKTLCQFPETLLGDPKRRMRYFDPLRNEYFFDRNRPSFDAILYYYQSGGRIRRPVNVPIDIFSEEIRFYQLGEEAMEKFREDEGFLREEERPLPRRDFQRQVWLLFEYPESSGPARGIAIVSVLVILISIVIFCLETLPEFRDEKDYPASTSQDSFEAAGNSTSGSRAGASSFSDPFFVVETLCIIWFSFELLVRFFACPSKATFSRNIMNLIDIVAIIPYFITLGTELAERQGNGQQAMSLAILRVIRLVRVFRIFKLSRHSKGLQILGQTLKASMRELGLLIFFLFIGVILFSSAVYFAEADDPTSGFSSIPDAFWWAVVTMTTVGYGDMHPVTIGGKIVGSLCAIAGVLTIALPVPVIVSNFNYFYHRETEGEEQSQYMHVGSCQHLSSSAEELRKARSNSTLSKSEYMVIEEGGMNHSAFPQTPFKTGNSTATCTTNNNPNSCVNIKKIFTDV
Sequence of anuroctoxin (P0C166 whole entry): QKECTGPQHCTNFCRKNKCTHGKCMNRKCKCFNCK
Sequence of Kv1.2 (Homo sapiens) (P16389 whole entry): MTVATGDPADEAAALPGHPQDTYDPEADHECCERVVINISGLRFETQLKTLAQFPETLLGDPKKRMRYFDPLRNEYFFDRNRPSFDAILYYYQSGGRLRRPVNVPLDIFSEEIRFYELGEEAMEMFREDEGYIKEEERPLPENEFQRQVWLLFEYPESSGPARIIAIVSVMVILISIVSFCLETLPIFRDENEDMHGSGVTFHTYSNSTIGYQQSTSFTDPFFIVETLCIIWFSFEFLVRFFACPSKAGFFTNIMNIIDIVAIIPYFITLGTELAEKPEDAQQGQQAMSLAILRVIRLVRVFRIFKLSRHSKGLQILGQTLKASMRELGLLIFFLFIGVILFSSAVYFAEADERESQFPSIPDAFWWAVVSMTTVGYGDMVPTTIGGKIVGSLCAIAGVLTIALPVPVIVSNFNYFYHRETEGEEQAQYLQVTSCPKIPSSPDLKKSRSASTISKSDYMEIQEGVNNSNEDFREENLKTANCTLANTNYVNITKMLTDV

Substance | Kd [1, 7] [nM] | selectivity class [2] | KdKv1.2/KdKv1.3 [2, 8] | Kd [2, 9] [nM] | block of Kv1.3, in words [2] | Kd [3] [nM] | Kd [4] [nM] | Kd ([1]; listed as natural toxin, read-out: Kd Kv1.2 of natural anuroctoxin) [nM] | Kd ([2]; listed as natural toxin, read-out: Kd Kv1.3 of natural anuroctoxin) [nM] | selectivity of the natural toxin for Kv1.3 over Kv1.2 ([2]; natural toxin) [fold] | MTX binding affinity of hKv1.2 with V381H mutation [5] | MTX sensitivity of Kv1.3 with H399T replacement [6]
Hongotoxin-1 | 0.17 | non-selective (non-selective) | 1.9 | 0.09 | nanomolar range | – | – | – | – | – | – | –
Noxiustoxin (TIINVKCTSPKQCSKPCKELYGSSAGAKCMNGKCKCYNN; UniProt P08815 1-39, looked up) [scorpion toxin] | 2 | non-selective (non-selective) | 2 | 1 | nanomolar range | – | – | – | – | – | – | –
anuroctoxin (from UniProt P0C166) | – | – | – | – | – | 6.14 | 0.73 | – | – | – | – | –
anuroctoxin [AnTx] | 6 | non-selective (non-selective) | 9 | – | – | – | – | 6.1 | 0.7 | 9 | – | –
charybdotoxin [ChTx] | 14 | non-selective (non-selective) | 5.4 | 2.6 | nanomolar range | – | – | – | – | – | – | –
kaliotoxin [KTX] | > 1000 | Kv1.3 (Kv1.3-selective) | > 1538 | 0.65 | – | – | – | – | – | – | – | –
maurotoxin | 0.8 | Kv1.2 (Kv1.2-selective) | 0.004 | 180 | – | – | – | – | – | – | drastically reduced MTX binding affinity | made Kv1.3 sensitive to MTX
